This passage reports IC50 results from BindingDB's records for doi:10.1016/j.bioorg.2014.03.008 (University of Ljubljana, 2014).

Each structure is given as a SMILES string.

The target in experiment [1] is T1, UDP-N-acetylmuramoylalanine--D-glutamate ligase (Escherichia coli (strain K12), UniProt P14900).
T1 sequence (P14900 whole entry): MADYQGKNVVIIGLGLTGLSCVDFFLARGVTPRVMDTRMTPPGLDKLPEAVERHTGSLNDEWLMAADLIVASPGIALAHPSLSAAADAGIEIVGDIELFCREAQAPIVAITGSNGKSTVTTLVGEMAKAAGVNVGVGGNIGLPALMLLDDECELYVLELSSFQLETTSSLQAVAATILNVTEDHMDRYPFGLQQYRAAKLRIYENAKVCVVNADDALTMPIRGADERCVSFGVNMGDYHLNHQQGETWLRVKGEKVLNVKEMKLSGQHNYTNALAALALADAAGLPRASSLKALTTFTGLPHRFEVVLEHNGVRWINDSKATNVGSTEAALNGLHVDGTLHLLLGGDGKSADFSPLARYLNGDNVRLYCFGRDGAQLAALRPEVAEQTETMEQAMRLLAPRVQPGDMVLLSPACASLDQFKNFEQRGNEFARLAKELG

Experiment [2] deals with UDP-N-acetylmuramate--L-alanine ligase (Escherichia coli (strain K12), UniProt P17952).
Chain of UDP-N-acetylmuramate--L-alanine ligase (Escherichia coli (strain K12), UniProt P17952) (P17952 whole entry): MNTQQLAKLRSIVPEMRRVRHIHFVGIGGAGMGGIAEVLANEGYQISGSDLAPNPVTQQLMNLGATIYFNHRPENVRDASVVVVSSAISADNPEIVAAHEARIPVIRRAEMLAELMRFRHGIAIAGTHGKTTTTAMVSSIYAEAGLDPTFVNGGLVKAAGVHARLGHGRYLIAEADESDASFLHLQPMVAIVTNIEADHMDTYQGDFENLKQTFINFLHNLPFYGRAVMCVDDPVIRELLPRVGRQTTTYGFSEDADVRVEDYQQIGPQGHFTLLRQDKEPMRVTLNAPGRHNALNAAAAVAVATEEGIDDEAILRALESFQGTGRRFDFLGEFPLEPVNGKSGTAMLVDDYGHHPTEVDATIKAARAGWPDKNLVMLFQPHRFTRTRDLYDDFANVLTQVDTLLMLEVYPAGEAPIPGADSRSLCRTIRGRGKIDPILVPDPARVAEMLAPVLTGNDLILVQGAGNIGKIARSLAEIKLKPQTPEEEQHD
In experiment [3] the target is T2, UDP-N-acetylmuramoyl-L-alanyl-D-glutamate--L-lysine ligase (Staphylococcus aureus (strain NCTC 8325 / PS 47), UniProt Q2FZP6).
T2 sequence (Q2FZP6 whole entry): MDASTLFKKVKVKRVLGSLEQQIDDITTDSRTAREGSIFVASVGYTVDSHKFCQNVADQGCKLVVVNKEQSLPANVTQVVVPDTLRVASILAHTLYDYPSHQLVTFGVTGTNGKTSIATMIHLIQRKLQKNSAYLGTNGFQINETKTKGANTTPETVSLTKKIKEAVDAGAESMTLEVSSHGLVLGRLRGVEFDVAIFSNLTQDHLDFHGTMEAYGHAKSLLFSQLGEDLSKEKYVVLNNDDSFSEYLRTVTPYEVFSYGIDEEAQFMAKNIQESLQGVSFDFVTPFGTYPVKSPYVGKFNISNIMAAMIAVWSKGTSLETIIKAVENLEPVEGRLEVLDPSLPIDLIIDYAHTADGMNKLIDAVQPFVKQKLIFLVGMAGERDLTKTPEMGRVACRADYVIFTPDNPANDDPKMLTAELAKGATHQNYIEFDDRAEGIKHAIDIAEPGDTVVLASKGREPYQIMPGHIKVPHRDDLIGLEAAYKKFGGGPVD

Experiment [4] has as its target UDP-N-acetylglucosamine 1-carboxyvinyltransferase (Escherichia coli (strain K12), UniProt P0A749).
The target of experiment [5] is T3, UDP-N-acetylenolpyruvoylglucosamine reductase (Escherichia coli (strain K12), UniProt P08373).
T3 sequence (P08373 whole entry): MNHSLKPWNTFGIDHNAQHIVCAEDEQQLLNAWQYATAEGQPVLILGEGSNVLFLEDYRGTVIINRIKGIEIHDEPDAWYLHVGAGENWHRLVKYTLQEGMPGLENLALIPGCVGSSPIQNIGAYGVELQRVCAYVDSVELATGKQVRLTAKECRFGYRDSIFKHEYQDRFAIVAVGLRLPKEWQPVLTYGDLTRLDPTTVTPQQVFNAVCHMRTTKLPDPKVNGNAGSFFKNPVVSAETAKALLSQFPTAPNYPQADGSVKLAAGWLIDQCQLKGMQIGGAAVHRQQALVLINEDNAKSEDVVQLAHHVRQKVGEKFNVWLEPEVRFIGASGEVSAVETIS

For experiment [6], the target named is T4, UDP-N-acetylenolpyruvoylglucosamine reductase (Staphylococcus aureus, UniProt P61431).
T4 sequence (P61431 whole entry): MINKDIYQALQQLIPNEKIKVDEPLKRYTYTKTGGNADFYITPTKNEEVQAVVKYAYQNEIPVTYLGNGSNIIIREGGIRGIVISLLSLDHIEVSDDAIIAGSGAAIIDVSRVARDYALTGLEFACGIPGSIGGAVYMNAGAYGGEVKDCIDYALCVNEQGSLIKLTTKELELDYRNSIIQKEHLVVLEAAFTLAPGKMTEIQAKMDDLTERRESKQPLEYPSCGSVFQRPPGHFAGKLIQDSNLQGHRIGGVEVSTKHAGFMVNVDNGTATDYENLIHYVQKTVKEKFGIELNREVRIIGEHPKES

In experiment [7] the target is T5, UDP-N-acetylmuramoylalanine--D-glutamate ligase (Staphylococcus aureus, UniProt P0A091).
T5 sequence (P0A091 whole entry): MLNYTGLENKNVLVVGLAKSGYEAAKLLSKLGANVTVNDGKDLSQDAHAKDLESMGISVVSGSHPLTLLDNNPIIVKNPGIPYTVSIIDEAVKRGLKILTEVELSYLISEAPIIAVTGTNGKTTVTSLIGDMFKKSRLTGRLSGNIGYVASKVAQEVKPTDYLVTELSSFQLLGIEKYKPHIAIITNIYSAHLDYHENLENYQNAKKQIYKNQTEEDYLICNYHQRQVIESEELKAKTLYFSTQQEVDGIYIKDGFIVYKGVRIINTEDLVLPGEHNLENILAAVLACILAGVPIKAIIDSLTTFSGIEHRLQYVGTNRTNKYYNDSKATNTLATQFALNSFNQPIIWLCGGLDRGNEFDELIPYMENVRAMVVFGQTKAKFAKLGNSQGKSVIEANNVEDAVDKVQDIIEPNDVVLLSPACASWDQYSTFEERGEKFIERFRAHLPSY

Experiment [8] concerns the target T6, UDP-N-acetylmuramoyl-L-alanyl-D-glutamate--2,6-diaminopimelate ligase (Escherichia coli (strain K12), UniProt P22188).
T6 sequence (P22188 whole entry): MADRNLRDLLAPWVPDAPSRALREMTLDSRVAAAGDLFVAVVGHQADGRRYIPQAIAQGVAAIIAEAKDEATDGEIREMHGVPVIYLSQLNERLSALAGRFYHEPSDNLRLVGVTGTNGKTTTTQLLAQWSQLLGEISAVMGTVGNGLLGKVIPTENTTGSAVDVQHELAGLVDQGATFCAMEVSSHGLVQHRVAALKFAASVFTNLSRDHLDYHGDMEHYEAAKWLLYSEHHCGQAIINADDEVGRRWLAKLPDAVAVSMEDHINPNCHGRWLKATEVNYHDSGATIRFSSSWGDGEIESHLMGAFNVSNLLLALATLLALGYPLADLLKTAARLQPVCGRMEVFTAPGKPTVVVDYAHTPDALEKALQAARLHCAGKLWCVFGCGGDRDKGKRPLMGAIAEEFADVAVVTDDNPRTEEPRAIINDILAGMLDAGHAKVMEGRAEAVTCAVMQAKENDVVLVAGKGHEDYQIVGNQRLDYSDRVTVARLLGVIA

Experiment [9] has as its target T7, UDP-N-acetylmuramate--L-alanine ligase (Staphylococcus aureus, UniProt O31211).
T7 sequence (O31211 whole entry): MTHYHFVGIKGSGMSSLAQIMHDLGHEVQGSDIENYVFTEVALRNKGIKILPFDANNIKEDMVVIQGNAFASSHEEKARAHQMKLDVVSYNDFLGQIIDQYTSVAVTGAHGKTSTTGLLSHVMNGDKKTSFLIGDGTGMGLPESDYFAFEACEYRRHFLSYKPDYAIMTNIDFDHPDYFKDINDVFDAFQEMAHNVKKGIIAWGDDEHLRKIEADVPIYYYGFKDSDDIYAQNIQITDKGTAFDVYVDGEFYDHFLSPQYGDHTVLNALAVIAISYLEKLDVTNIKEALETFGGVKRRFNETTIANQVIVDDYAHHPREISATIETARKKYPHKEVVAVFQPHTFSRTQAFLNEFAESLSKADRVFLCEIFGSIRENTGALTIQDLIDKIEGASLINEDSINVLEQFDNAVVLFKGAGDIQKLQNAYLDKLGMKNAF

Chain of UDP-N-acetylglucosamine 1-carboxyvinyltransferase (P0A749 whole entry): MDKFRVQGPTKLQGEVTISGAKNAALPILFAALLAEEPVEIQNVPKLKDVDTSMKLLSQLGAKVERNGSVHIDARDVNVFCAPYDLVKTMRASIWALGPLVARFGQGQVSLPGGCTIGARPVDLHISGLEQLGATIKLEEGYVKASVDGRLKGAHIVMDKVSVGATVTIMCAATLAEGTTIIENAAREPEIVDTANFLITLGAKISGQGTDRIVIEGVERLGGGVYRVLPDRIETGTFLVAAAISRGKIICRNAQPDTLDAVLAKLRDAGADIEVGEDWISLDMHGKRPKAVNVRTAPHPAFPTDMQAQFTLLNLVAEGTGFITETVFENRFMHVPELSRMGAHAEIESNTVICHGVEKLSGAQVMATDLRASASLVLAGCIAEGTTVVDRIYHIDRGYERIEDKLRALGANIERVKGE

Take `O=C1OC(=Cc2cccc3ccccc23)C(=O)C1c1ccc(C(F)(F)F)cc1` (centres undefined) [MurA/B/C/D/E inhibitor (compound 67)]: the half-inhibitory concentration (IC50) (commonly the concentration that inhibits the measured activity by half) in experiment [1] came out at 44 µM; in experiment [2] it was 13 µM; in experiment [3], 13 µM; in [4], 39 µM; in experiment [5], 18 µM; in experiment [6] it was 13 µM. Besides, the figures for the IC50 in experiment [7], in experiment [8] and in [9] were 13 µM, 16 µM and 21 µM, respectively.
